Values of other authors in patent US20030003131A1, “Method for manufacture of free-flowing powder containing water-dispersible sterols” (priority 2001, published 2003).
Where two headings read alike, the source gives them in different places.

Assays:
cholesterol absorption [1] = conditions: oil-free delivery system with emulsifier
cholesterol absorption [2] = tested on: cholesterol absorption
LDL cholesterol = conditions: 2.8 g sitostanol/day given as sitostanol ester in margarine

Question: What does the source list for `CC[C@H](CC[C@@H](C)[C@H]1CC[C@H]2[C@@H]3CC[C@H]4C[C@@H](O)CC[C@]4(C)[C@H]3CC[C@]12C)C(C)C` [sitostanol]?
Answer: reduction of cholesterol absorption (cholesterol absorption [1]): ≤ 37%; reduction of serum cholesterol (serum cholesterol; 1.5 g/day, subjects with severe hypercholesterolemia): 15%; effect on serum cholesterol (serum cholesterol; 3 g/day, subjects with moderate hypercholesterolemia): no effect

Question: What does the source list for `CC[C@H](CC[C@@H](C)[C@H]1CC[C@H]2[C@@H]3CC=C4C[C@@H](O)CC[C@]4(C)[C@H]3CC[C@]12C)C(C)C` [sitosterol]?
Answer: decrease of serum cholesterol levels (serum cholesterol; 3-9 g/day of powdered sitosterol, dose-response study): 12%; reduction of serum cholesterol (serum cholesterol; doses of 5-18 g sitosterol/day): 16-20%

Question: With neomycin as the compound, how does the “effect on cholesterol absorption” value (cholesterol absorption [2]; orally administered) read?
Answer: reduces cholesterol absorption effectively

Question: With sitostanol ester as the compound, how does the “less effective at reducing cholesterol absorption compared to the unesterified sterol” value (cholesterol absorption [2]; humans, ester dissolved in dietary fat) read?
Answer: 21%

Question: What about the “reduction of LDL cholesterol” value (LDL cholesterol) of the same compound?
Answer: 16%
